The values below come from patent publication US11136370B2, “Compositions and methods for thrombin generation assay” (The Scripps Research Institute, priority 2016, dated 2021).

In this assay the test system is thrombin generation (TG). Type of assay: biochemical, human. How it is done: TG in PRP or reconstituted PRP was evaluated as known to those skilled in the art. Native PRP was prepared from blood collected into final 12.9 mM trisodium citrate by centrifugation at 250 g for 10 min at 25° C. The platelet count was adjusted to 180×10^3/μl by dilution with homologous PPP obtained by centrifuging PRP for 10 min at 1,500 g. CTI was added at 30-50 μg/ml depending on calibrated potency as assessed by FXIIa inhibition. Reconstituted PRP was prepared with washed platelets prepared from normal PRP by adding ⅕th volume of acid citrate-dextrose (71 mM citric acid, 85 mM trisodium citrate, and 111 mM dextrose, pH 4.5) and 5 U/ml apyrase; following centrifugation at 1,500 g for 10 minutes at 25° C., the platelet pellet was resuspended into PPP lacking FVII (George King Bio-Medical) or FIX (Haematologic Technologies) to give a final platelet count of 180·103/μl PRP was mixed with varying concentrations of rTF and/or 20 pM FIXa in 96-well microtiter plates. The reaction was started by adding 18 mM CaCl2 with 360 μM of the thrombin substrate benzyloxycarbonyl-glycyl-glycyl-L-arginine coupled to the fluorogenic group 7-amido-4-methylcoumarin (Gly-Gly-Arg-AMC; Bachem Americas, Torrance, Calif.). Fluorescence was measured continuously at 37° C. for up to 40 min in a spectrofluorometer (355/460 nm excitation/emission). The rate of fluorescence intensity increase as a function of time (dF/dt) was calculated with Turbo Delphi 2006 (Borland Software Corporation, Austin, Tex.) and converted to thrombin-equivalent concentration (nM) using a calibration curve. The endogenous thrombin potential (ETP) of samples, i.e. total generated thrombin activity, was determined from the area under the TG curve. When specified, TG was measured with a discontinuous 2-stage assay with a detection limit of 5 pM. For this, TG was induced by 0.15 pM rTF and 18 mM CaCl2 in reconstituted FVII-deficient PRP including 30 μg/ml CTI with 400 pM WT FVIIa or iFVIIa without or with 20 pM FIXa. After incubation for up to 11 min at 37° C., reactions were terminated by adding 20 mM EDTA and generated thrombin was measured using the highly sensitive thrombin substrate H-D-CHA-Ala-Arg-AMC.2AcOH (Pefafluor TH, Pentapharm, Basel, Switzerland) at 50 μM concentration. In other experiments, TG was induced by TFiFVIIa-FXa-TFPI or TF-iFVIIa-FXa-NAPc2. These stable complexes were pre-formed by incubating 5 nM FXa, 10 nM TF, 10 nM iFVIIa and 40 nM TFPI or NAPc2 in the presence of 2.5 mM CaCl2 for 2 min at 37° C. Complexes were added into FVII-deficient PRP, followed by incubation for 8 min at 37° C.
PRP was prepared from blood collected into trisodium citrate (final concentration 0.0129 M) by centrifugation for at 250 g for 10 min at 25° C.; the platelet count was adjusted at 180.103 per μl by diluting with homologous platelet-poor plasma (PPP) obtained by centrifuging PRP for an additional 10 min at 1,500 g. When indicated, CTI was added at 30 to 50 μg/ml depending on calibrated potency measured by FXIIa inhibition. Reconstituted PRP was prepared by adding normal washed platelets into PPP (without or with CTI) lacking FVII, FVIII (both from George King Bio-Medical, Overland Park, Kans.) or FIX (Haematologic Technologies). […] generation in PRP was measured as described by Hemker et al. 53 μl of PRP was mixed in 96-well microtiter plates with 15 μl of a solution containing rTF and/or one of the intrinsic coagulation pathway proteases—FXIIa, FXIa or FIXa—to achieve the indicated final concentrations. Antibodies or inhibitors were also added at this point at the concentration indicated for each specific case. The reaction was started by adding between 15 and 20 μl of 100 mM CaCl2 and 2 mM fluorogenic substrate, benzyloxycarbonyl-glycyl-glycyl-L-arginine-7-amido-4-methylcoumarin (Gly-Gly-Arg-AMC; Bachem Americas, Torrance, Calif.).

As for `O=C(NC[C@H]1CN(c2ccc(N3CCOCC3=O)cc2)C(=O)O1)c1ccc(Cl)s1` [Rivaroxaban], for the setting “low rivaroxaban concentrations”, the “inhibition of TG in the presence of MoAb 12C7” value is “more pronounced inhibition”. In addition, under “recalcified PRP containing CTI”, the “difference in dose response between rivaroxaban and apixaban” value was around 3 fold; the “effect on TF-induced thrombin generation” value was “inhibited”.
